Assay results taken from US20240067693A1, “POLYPEPTIDES AND USES THEREOF” (MEDIMMUNE LIMITED, priority 2020, published 2024).
Numbered stars: 1 amine (or outer) side, 2 acyl side, 3 side chain; on linkers, the order of the positions; unused ones are H or OH. Bridge positions count the residues as written; N and C are the ends. Square brackets hold non-standard residues; d marks the D form. Side chains are listed from the residue outwards. Peptide text beside a SMILES is read from it. * marks the point of attachment. C18 diacid = O=C(O)CCCCCCCCCCCCCCCCC(=O)*; γGlu = O=C(O)[C@H](CCC(=O)[*:2])N[*:1]; Aib = CC(C)(N)C(=O)O

Columns and labels:
[1] = molecular target: T1, human calcitonin receptor (hCTR) (Homo sapiens, UniProt P30988); assay: cAMP production in 1321N1 cells with stable recombinant expression of human calcitonin receptor (hCTR); format: cell-based; details: cAMP, 1321N1 cells, assay buffer with 0.1% BSA; read-out: EC50 (pM) hCTR
T1 construct: expressed in transfected cells
T1 sequence (P30988 25-474): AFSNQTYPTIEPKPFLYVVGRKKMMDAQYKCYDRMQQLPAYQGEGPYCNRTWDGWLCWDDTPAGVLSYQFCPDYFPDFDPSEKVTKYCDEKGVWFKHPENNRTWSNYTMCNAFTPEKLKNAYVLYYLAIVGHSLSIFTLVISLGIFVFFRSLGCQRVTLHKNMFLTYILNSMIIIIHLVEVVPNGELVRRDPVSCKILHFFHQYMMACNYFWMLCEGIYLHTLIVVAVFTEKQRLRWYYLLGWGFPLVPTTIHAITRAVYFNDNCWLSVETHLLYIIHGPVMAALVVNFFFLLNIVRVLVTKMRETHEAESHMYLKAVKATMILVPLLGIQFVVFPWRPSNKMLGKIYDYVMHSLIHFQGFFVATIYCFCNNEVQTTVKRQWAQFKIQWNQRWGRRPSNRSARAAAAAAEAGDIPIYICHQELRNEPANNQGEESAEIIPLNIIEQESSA
Method in brief: (§1)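 EC50 values come from 4-parameter logistic fits of HTRF cAMP signal, normalised to maximal calcitonin or amylin effect. Peptides were tested in duplicate for 30 min at RT in IBMX-containing (0.5 mM) BSA/HEPES buffer pH 7.4 on stable 1321N1 (human CTR, AMYR3) or HEK (rat CTR, AMYR3) lines.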

[2] = molecular target: T2, human amylin receptor (calcitonin receptor co-expressed with receptor activity modifying protein, RAMP3) (hAMYR3) (Homo sapiens, UniProt O60896+P30988); assay: cAMP production in 1321N1 cells with stable recombinant expression of human amylin receptor (hAMYR3); format: cell-based; details: for Ratio (selectivity hAMYR vs hCTR, ratio of EC50 values at the two receptors): EC50 hCTR / EC50 hAMYR3; for EC50: cAMP, 1321N1 cells, assay buffer with 0.1% BSA, read-out: EC50 (pM) hAMYR3
T2 construct: expressed in transfected cells
T2 sequence (P30988 25-474): T1 sequence (P30988 25-474)
T2 sequence (O60896 24-148 partner): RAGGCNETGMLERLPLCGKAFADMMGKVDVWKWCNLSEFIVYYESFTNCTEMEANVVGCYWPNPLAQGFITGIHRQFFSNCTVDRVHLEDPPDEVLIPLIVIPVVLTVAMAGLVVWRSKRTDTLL
Method in brief: as §1

EC50 [1] [pM] | Ratio (selectivity hAMYR vs hCTR, ratio of EC50 values at the two receptors) [2] | EC50 [2] [pM] | SMILES
2220 | 7.9 | 281 | CC[C@H](C)[C@H](NC(=O)[C@@H]1CCCN1C(=O)CNC(=O)[C@H](Cc1ccccc1)NC(=O)[C@H](CC(N)=O)NC(=O)[C@H](CC(N)=O)NC(=O)[C@H](CO)NC(=O)[C@H](CO)NC(=O)[C@H](Cc1c[nH]cn1)NC(=O)C(C)(C)NC(=O)[C@H](CC(C)C)NC(=O)[C@H](Cc1ccccc1)NC(=O)[C@H](CC(N)=O)NC(=O)[C@H](C)NC(=O)[C@H](CC(C)C)NC(=O)[C@H](CCCNC(=N)N)NC(=O)[C@H](CCC(N)=O)NC(=O)[C@@H](NC(=O)[C@H](C)NC(=O)[C@@H]1CSSC[C@H](NC(=O)[C@H](CCCCN)NC(=O)[C@@H](N)CCCCNC(=O)CC[C@H](NC(=O)CCCCCCCCCCCCCCCCC(=O)O)C(=O)O)C(=O)N[C@@H](CC(N)=O)C(=O)N[C@@H]([C@@H](C)O)C(=O)N[C@@H](C)C(=O)N[C@@H]([C@@H](C)O)C(=O)N1)[C@@H](C)O)C(=O)N[C@@H](CC(C)C)C(=O)N1CCC[C@H]1C(=O)N1CCC[C@H]1C(=O)N[C@H](C(=O)N1CCC[C@H]1C(=O)N[C@H](C(=O)NCC(=O)N[C@@H](CO)C(=O)N[C@@H](CC(N)=O)C(=O)N[C@H](C(=O)N[C@@H](Cc1ccc(O)cc1)C(N)=O)[C@@H](C)O)C(C)C)[C@@H](C)O [Peptide 134] (H-K([γGlu-C18 diacid])KCNTATCATQRLANFL[Aib]HSSNNFGPILPPTPVGSNTY-NH2; disulfide 3-8; N-terminus assumed)
101 | 0.8 | 122 | CC[C@H](C)[C@H](NC(=O)[C@@H]1CCCN1C(=O)CNC(=O)[C@H](Cc1ccccc1)NC(=O)[C@H](CC(N)=O)NC(=O)[C@H](CC(N)=O)NC(=O)[C@H](CO)NC(=O)[C@H](CO)NC(=O)[C@H](Cc1c[nH]cn1)NC(=O)C(C)(C)NC(=O)[C@H](CC(C)C)NC(=O)[C@H](Cc1ccccc1)NC(=O)[C@H](CC(N)=O)NC(=O)[C@H](C)NC(=O)[C@H](CC(C)C)NC(=O)[C@H](CCCNC(=N)N)NC(=O)[C@H](CCC(N)=O)NC(=O)[C@@H](NC(=O)[C@H](C)NC(=O)[C@@H]1CSSC[C@H](NC(=O)[C@H](CCCCN)NC(=O)[C@@H](N)CCCCNC(=O)CC[C@H](NC(=O)CCCCCCCCCCCCCCCCC(=O)O)C(=O)O)C(=O)N[C@@H](CC(N)=O)C(=O)N[C@@H]([C@@H](C)O)C(=O)N[C@@H](C)C(=O)N[C@@H]([C@@H](C)O)C(=O)N1)[C@@H](C)O)C(=O)N[C@@H](CC(C)C)C(=O)N1CCC[C@H]1C(=O)N1CCC[C@H]1C(=O)N[C@H](C(=O)N[C@@H](CC(N)=O)C(=O)N[C@H](C(=O)NCC(=O)N[C@@H](CO)C(=O)N[C@@H](CC(N)=O)C(=O)N[C@H](C(=O)N1CCC[C@H]1C(N)=O)[C@@H](C)O)C(C)C)[C@@H](C)O [Peptide 136] (H-K([γGlu-C18 diacid])KCNTATCATQRLANFL[Aib]HSSNNFGPILPPTNVGSNTP-NH2; disulfide 3-8; N-terminus assumed)
1040 | 3.7 | 285 | CC[C@H](C)[C@H](NC(=O)[C@@H]1CCCN1C(=O)CNC(=O)[C@H](Cc1ccccc1)NC(=O)[C@H](CC(N)=O)NC(=O)[C@@H]1CCCN1C(=O)[C@H](CO)NC(=O)[C@H](CO)NC(=O)[C@H](Cc1c[nH]cn1)NC(=O)C(C)(C)NC(=O)[C@H](CC(C)C)NC(=O)[C@H](Cc1ccccc1)NC(=O)[C@H](CC(N)=O)NC(=O)[C@H](C)NC(=O)[C@H](CC(C)C)NC(=O)[C@H](CCCNC(=N)N)NC(=O)[C@H](CCC(N)=O)NC(=O)[C@@H](NC(=O)[C@H](C)NC(=O)[C@@H]1CSSC[C@H](NC(=O)[C@H](CCCCN)NC(=O)[C@@H](N)CCCCNC(=O)CC[C@H](NC(=O)CCCCCCCCCCCCCCCCC(=O)O)C(=O)O)C(=O)N[C@@H](CC(N)=O)C(=O)N[C@@H]([C@@H](C)O)C(=O)N[C@@H](C)C(=O)N[C@@H]([C@@H](C)O)C(=O)N1)[C@@H](C)O)C(=O)N[C@@H](CC(C)C)C(=O)N1CCC[C@H]1C(=O)N1CCC[C@H]1C(=O)N[C@H](C(=O)N[C@@H](CC(N)=O)C(=O)N[C@H](C(=O)NCC(=O)N[C@@H](CO)C(=O)N[C@@H](CCC(=O)O)C(=O)N[C@H](C(=O)N[C@@H](Cc1ccc(O)cc1)C(N)=O)[C@@H](C)O)C(C)C)[C@@H](C)O [Peptide 139] (H-K([γGlu-C18 diacid])KCNTATCATQRLANFL[Aib]HSSPNFGPILPPTNVGSETY-NH2; disulfide 3-8; N-terminus assumed)

The remaining lines, values behind:

SMILES | EC50 [1] [pM] | Ratio (selectivity hAMYR vs hCTR, ratio of EC50 values at the two receptors) [2] | EC50 [2] [pM]
CC[C@H](C)[C@H](NC(=O)[C@@H]1CCCN1C(=O)CNC(=O)[C@H](Cc1ccccc1)NC(=O)[C@H](Cc1c[nH]cn1)NC(=O)[C@H](CC(N)=O)NC(=O)[C@H](CO)NC(=O)[C@H](CO)NC(=O)[C@H](Cc1c[nH]cn1)NC(=O)C(C)(C)NC(=O)[C@H](CC(C)C)NC(=O)[C@H](Cc1ccccc1)NC(=O)[C@H](CC(N)=O)NC(=O)[C@H](C)NC(=O)[C@H](CC(C)C)NC(=O)[C@H](CCCNC(=N)N)NC(=O)[C@H](CCC(N)=O)NC(=O)[C@@H](NC(=O)[C@H](C)NC(=O)[C@@H]1CSSC[C@H](NC(=O)[C@H](CCCCN)NC(=O)[C@@H](N)CCCCNC(=O)CC[C@H](NC(=O)CCCCCCCCCCCCCCCCC(=O)O)C(=O)O)C(=O)N[C@@H](CC(N)=O)C(=O)N[C@@H]([C@@H](C)O)C(=O)N[C@@H](C)C(=O)N[C@@H]([C@@H](C)O)C(=O)N1)[C@@H](C)O)C(=O)N[C@@H](CC(C)C)C(=O)N1CCC[C@H]1C(=O)N1CCC[C@H]1C(=O)N[C@H](C(=O)N[C@@H](CC(N)=O)C(=O)N[C@H](C(=O)NCC(=O)N[C@@H](CO)C(=O)N[C@@H](CC(N)=O)C(=O)N[C@H](C(=O)N[C@@H](Cc1ccc(O)cc1)C(N)=O)[C@@H](C)O)C(C)C)[C@@H](C)O [Peptide 135] (H-K([γGlu-C18 diacid])KCNTATCATQRLANFL[Aib]HSSNHFGPILPPTNVGSNTY-NH2; disulfide 3-8; N-terminus assumed) | 345 | 1.2 | 296
CC[C@H](C)[C@H](NC(=O)[C@@H]1CCCN1C(=O)CNC(=O)[C@H](Cc1ccccc1)NC(=O)[C@H](CC(N)=O)NC(=O)[C@H](CCCNC(=N)N)NC(=O)[C@H](CO)NC(=O)[C@H](CO)NC(=O)[C@H](Cc1c[nH]cn1)NC(=O)C(C)(C)NC(=O)[C@H](CC(C)C)NC(=O)[C@H](Cc1ccccc1)NC(=O)[C@H](CC(N)=O)NC(=O)[C@H](C)NC(=O)[C@H](CC(C)C)NC(=O)[C@H](CCCNC(=N)N)NC(=O)[C@H](CCC(N)=O)NC(=O)[C@@H](NC(=O)[C@H](C)NC(=O)[C@@H]1CSSC[C@H](NC(=O)[C@H](CCCCN)NC(=O)[C@@H](N)CCCCNC(=O)CC[C@H](NC(=O)CCCCCCCCCCCCCCCCC(=O)O)C(=O)O)C(=O)N[C@@H](CC(N)=O)C(=O)N[C@@H]([C@@H](C)O)C(=O)N[C@@H](C)C(=O)N[C@@H]([C@@H](C)O)C(=O)N1)[C@@H](C)O)C(=O)N[C@@H](CC(C)C)C(=O)N1CCC[C@H]1C(=O)N1CCC[C@H]1C(=O)N[C@H](C(=O)N[C@@H](CC(N)=O)C(=O)N[C@H](C(=O)NCC(=O)N[C@@H](CO)C(=O)N[C@@H](CC(N)=O)C(=O)N[C@H](C(=O)N[C@@H](Cc1ccc(O)cc1)C(N)=O)[C@@H](C)O)C(C)C)[C@@H](C)O [Peptide 137] (H-K([γGlu-C18 diacid])KCNTATCATQRLANFL[Aib]HSSRNFGPILPPTNVGSNTY-NH2; disulfide 3-8; N-terminus assumed) | 1500 | 6.3 | 238
CC[C@H](C)[C@H](NC(=O)[C@@H]1CCCN1C(=O)CNC(=O)[C@H](Cc1ccccc1)NC(=O)[C@H](CC(N)=O)NC(=O)[C@@H]1CCCN1C(=O)[C@H](CO)NC(=O)[C@H](CO)NC(=O)[C@H](Cc1c[nH]cn1)NC(=O)C(C)(C)NC(=O)[C@H](CC(C)C)NC(=O)[C@H](Cc1ccccc1)NC(=O)[C@H](CC(N)=O)NC(=O)[C@H](C)NC(=O)[C@H](CC(C)C)NC(=O)[C@H](CCCNC(=N)N)NC(=O)[C@H](CCC(N)=O)NC(=O)[C@@H](NC(=O)[C@H](C)NC(=O)[C@@H]1CSSC[C@H](NC(=O)[C@H](CCCCN)NC(=O)[C@@H](N)CCCCNC(=O)CC[C@H](NC(=O)CCCCCCCCCCCCCCCCC(=O)O)C(=O)O)C(=O)N[C@@H](CC(N)=O)C(=O)N[C@@H]([C@@H](C)O)C(=O)N[C@@H](C)C(=O)N[C@@H]([C@@H](C)O)C(=O)N1)[C@@H](C)O)C(=O)N[C@@H](CC(C)C)C(=O)N1CCC[C@H]1C(=O)N1CCC[C@H]1C(=O)N[C@H](C(=O)N[C@@H](CCC(=O)O)C(=O)N[C@H](C(=O)NCC(=O)N[C@@H](CO)C(=O)N[C@@H](CC(N)=O)C(=O)N[C@H](C(=O)N[C@@H](Cc1ccc(O)cc1)C(N)=O)[C@@H](C)O)C(C)C)[C@@H](C)O [Peptide 138] (H-K([γGlu-C18 diacid])KCNTATCATQRLANFL[Aib]HSSPNFGPILPPTEVGSNTY-NH2; disulfide 3-8) | 2510 | 4.1 | 612
